Tested on: PGM1-defective patient fibroblasts
Assay: Nucleotide sugar analysis (UPLC-PDA), patient fibroblasts
Type: cell-based, human
Procedure: Levels of nucleotides and sugar-nucleotides were determined. Fibroblast cell pellets (5×10^6 cells per sample) were lysed and extracted in 0.37 ml ice-cold 0.5 M perchloric acid with sonication on ice. Samples were neutralized with 86 μl ice-cold neutralization solution (2.5 M KOH in 1.5 M K2HPO4) after 5 minute sonication. To remove precipitated potassium perchlorate neutralized samples were centrifuged at 4° C. and 16,400×g for 10 minutes and filtered with 0.2 μm filters. Nucleotides and sugar-nucleotides were immediately analyzed and separated via ion-pair reverse phased chromatography using an Acquity HSS T3 column (150 mm×2.1 mm, 1.7 μm, Waters) connected to an Acquity H-class UPLC system. The column temperature was set to 40° C. and the column was equilibrated with solvent A (50 mM potassium phosphate buffer, 8 mM tetrabutylammonium hydrogensulfate, pH 6.5) at a flow rate of 0.45 ml min^−1. Autosampler temperature was maintained at 6° C. […] Nucleotides were detected by Acquity PDA detector (Waters, 260 nm) and quantified using ultrapure standards (Sigma). Data acquisition and processing was performed with the Empower3 software suite (Waters).
Nucleotide sugars were measured with serum starvation during 18 hours of culturing and without of serum starvation and applying normal media.

[1] = patient 1, 1 d + 0.75 mM Galactose
[2] = patient 1, 4 d + 0.75 mM Galactose
[3] = patient 2, 1 d + 0.75 mM Galactose
[4] = patient 2, 4 d + 0.75 mM Galactose

O=C[C@H](O)[C@@H](O)[C@@H](O)[C@H](O)CO [D-gal, D-galactose]
ADP (patient 1, 1 d 2 mM Galactose): 580.50 pmol/mio cells
ATP (patient 1, 1 d 2 mM Galactose): 2719.61 pmol/mio cells
CTP (patient 1, 1 d 2 mM Galactose): 342.25 pmol/mio cells
GDP (patient 1, 1 d 2 mM Galactose): 293.65 pmol/mio cells
GDP-Man (patient 1, 1 d 2 mM Galactose): 107.17 pmol/mio cells
GTP (patient 1, 1 d 2 mM Galactose): 542.24 pmol/mio cells
UDP (patient 1, 1 d 2 mM Galactose): 129.40 pmol/mio cells
UDP-Gal (patient 1, 1 d 2 mM Galactose): 453.09 pmol/mio cells
UDP-Glc (patient 1, 1 d 2 mM Galactose): 650.22 pmol/mio cells
UDP-GlcNAc (patient 1, 1 d 2 mM Galactose): 102.26 pmol/mio cells
UTP (patient 1, 1 d 2 mM Galactose): 1449.38 pmol/mio cells
cAMP (patient 1, 1 d 2 mM Galactose): 74.49 pmol/mio cells
ADP [1]: 584.35 pmol/mio cells
AMP [1]: 23.07 pmol/mio cells
ATP [1]: 2943.38 pmol/mio cells
CTP [1]: 366.00 pmol/mio cells
GDP [1]: 246.90 pmol/mio cells
GDP-Man [1]: 155.03 pmol/mio cells
GTP [1]: 588.22 pmol/mio cells
UDP [1]: 134.67 pmol/mio cells
UDP-Gal [1]: 386.15 pmol/mio cells
UDP-Glc [1]: 604.90 pmol/mio cells
UDP-GlcNAc [1]: 121.57 pmol/mio cells
UTP [1]: 1510.19 pmol/mio cells
cAMP [1]: 71.81 pmol/mio cells
ADP (patient 1, 4 d 2 mM Galactose): 772.84 pmol/mio cells
AMP (patient 1, 4 d 2 mM Galactose): 22.72 pmol/mio cells
ATP (patient 1, 4 d 2 mM Galactose): 3861.23 pmol/mio cells
CTP (patient 1, 4 d 2 mM Galactose): 370.91 pmol/mio cells
GDP (patient 1, 4 d 2 mM Galactose): 387.40 pmol/mio cells
GDP-Man (patient 1, 4 d 2 mM Galactose): 170.10 pmol/mio cells
GTP (patient 1, 4 d 2 mM Galactose): 763.70 pmol/mio cells
UDP (patient 1, 4 d 2 mM Galactose): 215.93 pmol/mio cells
UDP-Gal (patient 1, 4 d 2 mM Galactose): 398.07 pmol/mio cells
UDP-Glc (patient 1, 4 d 2 mM Galactose): 620.64 pmol/mio cells
UDP-GlcNAc (patient 1, 4 d 2 mM Galactose): 12.26 pmol/mio cells
UTP (patient 1, 4 d 2 mM Galactose): 1569.45 pmol/mio cells
cAMP (patient 1, 4 d 2 mM Galactose): 71.92 pmol/mio cells
ADP [2]: 789.98 pmol/mio cells
AMP [2]: 34.87 pmol/mio cells
ATP [2]: 3796.06 pmol/mio cells
CTP [2]: 342.60 pmol/mio cells
GDP [2]: 422.05 pmol/mio cells
GDP-Man [2]: 217.57 pmol/mio cells
GTP [2]: 749.54 pmol/mio cells
UDP [2]: 208.17 pmol/mio cells
UDP-Gal [2]: 331.94 pmol/mio cells
UDP-Glc [2]: 475.08 pmol/mio cells
UDP-GlcNAc [2]: 38.85 pmol/mio cells
UTP [2]: 1526.34 pmol/mio cells
cAMP [2]: 73.68 pmol/mio cells
ADP (patient 2, 1 d 2 mM Galactose): 610.98 pmol/mio cells
AMP (patient 2, 1 d 2 mM Galactose): 18.34 pmol/mio cells
ATP (patient 2, 1 d 2 mM Galactose): 5088.22 pmol/mio cells
CTP (patient 2, 1 d 2 mM Galactose): 419.20 pmol/mio cells
GDP (patient 2, 1 d 2 mM Galactose): 301.50 pmol/mio cells
GDP-Man (patient 2, 1 d 2 mM Galactose): 194.09 pmol/mio cells
GTP (patient 2, 1 d 2 mM Galactose): 982.69 pmol/mio cells
UDP (patient 2, 1 d 2 mM Galactose): 166.53 pmol/mio cells
UDP-Gal (patient 2, 1 d 2 mM Galactose): 527.44 pmol/mio cells
UDP-Glc (patient 2, 1 d 2 mM Galactose): 871.97 pmol/mio cells
UDP-GlcNAc (patient 2, 1 d 2 mM Galactose): 5.21 pmol/mio cells
UTP (patient 2, 1 d 2 mM Galactose): 2093.30 pmol/mio cells
cAMP (patient 2, 1 d 2 mM Galactose): 81.52 pmol/mio cells
ADP [3]: 754.10 pmol/mio cells
AMP [3]: 16.43 pmol/mio cells
ATP [3]: 5766.25 pmol/mio cells
CTP [3]: 448.80 pmol/mio cells
GDP [3]: 356.25 pmol/mio cells
GDP-Man [3]: 236.64 pmol/mio cells
GTP [3]: 1110.15 pmol/mio cells
UDP [3]: 219.47 pmol/mio cells
UDP-Gal [3]: 478.66 pmol/mio cells
UDP-Glc [3]: 821.98 pmol/mio cells
UDP-GlcNAc [3]: 36.15 pmol/mio cells
UTP [3]: 2422.95 pmol/mio cells
cAMP [3]: 77.51 pmol/mio cells
ADP (patient 2, 4 d 2 mM Galactose): 849.99 pmol/mio cells
AMP (patient 2, 4 d 2 mM Galactose): 20.40 pmol/mio cells
ATP (patient 2, 4 d 2 mM Galactose): 6520.85 pmol/mio cells
CTP (patient 2, 4 d 2 mM Galactose): 430.21 pmol/mio cells
GDP (patient 2, 4 d 2 mM Galactose): 356.50 pmol/mio cells
GDP-Man (patient 2, 4 d 2 mM Galactose): 340.74 pmol/mio cells
GTP (patient 2, 4 d 2 mM Galactose): 1241.95 pmol/mio cells
UDP (patient 2, 4 d 2 mM Galactose): 249.58 pmol/mio cells
UDP-Gal (patient 2, 4 d 2 mM Galactose): 455.92 pmol/mio cells
UDP-Glc (patient 2, 4 d 2 mM Galactose): 665.41 pmol/mio cells
UDP-GlcNAc (patient 2, 4 d 2 mM Galactose): 2.63 pmol/mio cells
UTP (patient 2, 4 d 2 mM Galactose): 2810.26 pmol/mio cells
cAMP (patient 2, 4 d 2 mM Galactose): 70.40 pmol/mio cells
ADP [4]: 834.56 pmol/mio cells
AMP [4]: 21.45 pmol/mio cells
ATP [4]: 6841.61 pmol/mio cells
CTP [4]: 425.54 pmol/mio cells
GDP [4]: 394.32 pmol/mio cells
GDP-Man [4]: 203.23 pmol/mio cells
GTP [4]: 1263.21 pmol/mio cells
UDP [4]: 262.74 pmol/mio cells
UDP-Gal [4]: 390.10 pmol/mio cells
UDP-Glc [4]: 611.51 pmol/mio cells
UDP-GlcNAc [4]: 4.53 pmol/mio cells
UTP [4]: 2976.41 pmol/mio cells
cAMP [4]: 72.52 pmol/mio cells
Nucleotide sugar ratio UDP-Glc/UDP-Gal, mean (patient cell lines on D-gal (1.63 without)): 1.56

From patent US20220241311A1, “METHODS AND MATERIALS FOR TREATING GLYCOSYLATION DISORDERS” (priority 2018, published 2022)
